Assay results as given in patent US9974778B2, “Substituted pyridinones as MGAT2 inhibitors” (BRISTOL-MYERS SQUIBB COMPANY, priority 2014, dated 2018).

molecular target: T1, Human MGAT-2 (Homo sapiens, UniProt Q3SYC2); assay: MGAT LCMS Assay; assay type: biochemical; details: human MGAT2 membranes expressed in Sf9 cells; 100 μM 2-oleoylglycerol, 15 μM oleoyl-coenzyme A; read-out: h-MGAT LCMS IC50
T1 construct: made in house; host or cells: Sf9 cells (membrane preparation)
Procedure: Assay plates were run through a fully automated robotics system and shaken for 5 seconds every minute for a total 10 minutes. The reactions were then quenched with 120 μL of ice cold methanol containing 1 μg/mL 1,2-distearoyl-rac-glycerol as the internal standard. Plates were shaken for 2 minutes and spun down to remove protein precipitation. After the spin, samples were transferred to LC/MS compatible PCR plates. For LC/MS analysis, a ThermoFisher Surveyor pump, utilizing a Waters […]® C8, 50×2.1 mm column, was used for the chromatography of enzyme products. The buffer system consists of 0.1% formic acid in water with a mobile phase consisting 0.1% formic acid in methanol. […] The first 0.5 minutes of each injection was diverted to waste to eliminate the presence of Phosphate buffer in the enzymatic reaction. The column was run at 0.6 mL/min and a temperature of 65° C. Mass spectrometry analysis of the samples was performed on a ThermoFisher Quantum Triple quad utilizing APCI (+) as the mode of ionization. […] The ratio of Diolein to internal standard (Peak Area Ratio) is utilized to calculate IC50 values.

T1 sequence (Q3SYC2 whole entry): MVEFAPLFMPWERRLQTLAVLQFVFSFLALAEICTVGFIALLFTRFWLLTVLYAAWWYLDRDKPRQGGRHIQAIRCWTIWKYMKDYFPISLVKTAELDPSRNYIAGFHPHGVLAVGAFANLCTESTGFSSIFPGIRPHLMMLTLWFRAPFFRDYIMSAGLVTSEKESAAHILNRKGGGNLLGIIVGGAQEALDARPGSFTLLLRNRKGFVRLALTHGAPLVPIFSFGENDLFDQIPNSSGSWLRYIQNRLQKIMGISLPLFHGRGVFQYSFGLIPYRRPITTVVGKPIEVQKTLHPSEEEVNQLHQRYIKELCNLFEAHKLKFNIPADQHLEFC

Row | IC50 | SMILES
1 | 543 nM | Cc1ccc(-c2cc(C3CCCCC3)[nH]c(=O)c2C(=O)Nc2cccnc2)cc1 [Example 37, 6-Cyclohexyl-2-oxo-N-(pyridin-3-yl)-4-(p-tolyl)-1,2-dihydropyridine-3-carboxamide]
2 | 1250 nM | CCOc1ccc(NC(=O)c2c(-c3ccc(C)cc3)c(F)c(C3CCCCC3)[nH]c2=O)cc1 [Example 38, 6-Cyclohexyl-N-(4-ethoxyphenyl)-5-fluoro-2-oxo-4-(p-tolyl)-1,2-dihydropyridine-3-carboxamide]
3 | 139 nM | CCOc1ccc(NC(=O)c2c(-c3ccc(N(C)C)cc3)cc(C3(F)CCCCC3)[nH]c2=O)cc1 [Example 39, 4-(4-(Dimethylamino)phenyl)-N-(4-ethoxyphenyl)-6-(1-fluorocyclohexyl)-2-oxo-1,2-dihydropyridine-3-carboxamide]
4 | 390 nM | CCCCCc1ccc(-c2c(C3CCCC3)[nH]c(=O)c(C(=O)Nc3ccc(OCC)cc3)c2-c2ccc(C)cc2)cc1 [Example 40, 6-Cyclopentyl-N-(4-ethoxyphenyl)-2-oxo-5-(4-pentylphenyl)-4-(p-tolyl)-1,2-dihydropyridine-3-carboxamide]
5 | 36 nM | CCOc1ccc(NC(=O)c2c(-c3ccc(C)cc3)cc(C3(F)CCCCC3)[nH]c2=O)cc1 [Example 41, N-(4-Ethoxyphenyl)-6-(1-fluorocyclohexyl)-2-oxo-4-(p-tolyl)-1,2-dihydropyridine-3-carboxamide]
6 | 395 nM | CCCCCc1ccc(-c2cc(-c3ccc(CC)o3)c(C(=O)Nc3ccc(OCC)cc3)c(=O)[nH]2)cc1 [Example 42, N-(4-Ethoxyphenyl)-4-(5-ethylfuran-2-yl)-2-oxo-6-(4-pentylphenyl)-1,2-dihydropyridine-3-carboxamide]
7 | 27 nM | O=c1[nH]c(-c2ccc(OCCCCC(F)(F)F)cc2)cc(-c2ccc(C3CC3)s2)c1-c1nnn[nH]1 [Example 46]
8 | 3 nM | C/C=C/c1c(-c2ccc(CCCCC)cc2)[nH]c(=O)c(C(=O)Nc2ccc(OCC)cc2)c1-c1ccc(C)cc1 [Example 52]
9 | 267 nM | CCOc1ccc(NC(=O)c2c(-c3ccc(C)cc3)cc(-c3cnn(CCCCCC(F)(F)F)c3)[nH]c2=O)cc1 [Example 53, N-(4-Ethoxyphenyl)-2-oxo-4-(p-tolyl)-6-(1-(6,6,6-trifluorohexyl)-1H-pyrazol-4-yl)-1,2-dihydropyridine-3-carboxamide]
10 | 127 nM | CCOc1ccc(NC(=O)c2c(-c3ccc(C)cc3)cc(C3(F)CCCC3)[nH]c2=O)cc1 [Example 54, N-(4-Ethoxyphenyl)-6-(1-fluorocyclopentyl)-2-oxo-4-(p-tolyl)-1,2-dihydropyridinc-3-carboxamide]
11 | 29 nM | Cc1ccc(-c2cc(-c3ccc(OCCCCCC(F)(F)F)cc3)[nH]c(=O)c2C(=O)NS(=O)(=O)N(C)C)cc1 [Example 56, N-(N,N-Dimethylsulfamoyl)-2-oxo-4-(p-tolyl)-6-(4-((6,6,6-trifluorohexyl)oxy)phenyl)-1,2-dihydropyridine-3-carboxamide]
12 | 30 nM | CC(C)n1ccc(-c2cc(-c3ccc(OCCCCCC(F)(F)F)cc3)[nH]c(=O)c2-c2nnn[nH]2)c1 [Example 57, 4-(1-Isopropyl-1H-pyrrol-3-yl)-3-(1H-tetrazol-5-yl)-6-(4-((6,6,6-trifluorohexyl)oxy)phenyl)pyridin-2(1H)-one]
13 | 6 nM | CN(C)c1ccc(-c2cc(-c3ccc(OCCCCCC(F)(F)F)cc3)[nH]c(=O)c2-c2nnn[nH]2)cc1 [Example 59, 4-(4-(Dimethylamino)phenyl)-3-(1H-tetrazol-5-yl)-6-(4-((6,6,6-trifluorohexyl)oxy)phenyl)pyridin-2(1H)-one]
14 | 139 nM | Cc1ccc(-c2cc(-c3ccc(CCC4CC4)cc3)[nH]c(=O)c2-c2nnn[nH]2)cc1 [Example 61, 6-(4-(2-Cyclopropylethyl)phenyl)-3-(1H-tetrazol-5-yl)-4-(p-tolyl)pyridin-2(1H)-one]
15 | 188 nM | Cc1ccc(-c2cc(-c3ncc(CCCCCCC(F)(F)F)s3)[nH]c(=O)c2-c2nnn[nH]2)cc1 [Example 62, 3-(1H-Tetrazol-5-yl)-4-(p-tolyl)-6-(5-(7,7,7-trifluoroheptyl)thiazol-2-yl)pyridin-2(1H)-one]
16 | 17 nM | O=C(NS(=O)(=O)C1CC1)c1c(-c2ccc(CC3CC3)cc2)cc(-c2ccc(OCCCCCC(F)(F)F)cc2)[nH]c1=O [Example 63, 4-(4-(Cyclopropylmethyl)phenyl)-N-(cyclopropylsulfonyl)-2-oxo-6-(4-((6,6,6-trifluorohexyl)oxy)phenyl)-1,2-dihydropyridine-3-carboxamide]
17 | 172 nM | COc1ccc(-c2cc(-c3ccc(OCCCCCC(F)(F)F)cc3)[nH]c(=O)c2C(=O)NS(=O)(=O)C2CC2)cc1 [Example 65]
18 | 61 nM | CC(C)n1ccc(-c2cc(-c3ccc(OCCCCCC(F)(F)F)cc3)[nH]c(=O)c2-c2nn[nH]n2)n1 [Example 66]
19 | 2 nM | CCOc1ccc(NC(=O)c2c(-c3cnc(N(C)C)s3)cc(-c3ccc(OCCCC(F)(F)F)cc3)[nH]c2=O)cc1 [Example 67]

Row | SMILES | IC50
20 | CC(C)(C)c1ccc(-c2cc(-c3ccc(OCCCC(F)(F)F)cc3)[nH]c(=O)c2C(=O)Nc2ccccc2)cc1 [Example 44, 4-(4-(tert-Butyl)phenyl)-2-oxo-N-phenyl-6-(4-(4,4,4-trifluorobutoxy)phenyl)-1,2-dihydropyridine-3-carboxamide] | 6 nM
21 | CCOc1ccc(NC(=O)c2c(-c3ccc(C(C)(C)C)cc3)cc(-c3ccc(OCCCC(F)(F)F)cc3)[nH]c2=O)cc1 [Example 45, 4-(4-(tert-Butyl)phenyl)-N-(4-ethoxyphenyl)-2-oxo-6-(4-(4,4,4-trifluorobutoxy)phenyl)-1,2-dihydropyridine-3-carboxamide] | 9 nM
22 | O=c1[nH]c(-c2ccc(OCCCC(F)(F)F)cc2)cc(-c2cc3ccccc3s2)c1-c1nnn[nH]1 [Example 47, 4-(Benzo[b]thiophen-2-yl)-3-(1H-tetrazol-5-yl)-6-(4-(4,4,4-trifluorobutoxy)phenyl)pyridin-2(1H)-one] | 29 nM
23 | CC(C)(C)c1ccc(-c2cc(-c3ccc(OCCCC(F)(F)F)cc3)[nH]c(=O)c2-c2nnn[nH]2)cc1 [Example 48, 4-(4-(tert-Butyl)phenyl)-3-(1H-tetrazol-5-yl)-6-(4-(4,4,4-trifluorobutoxy)phenyl)pyridin-2(1H)-one] | 40 nM
24 | Cc1ccc(-c2cc(-c3ccc(OCCCC(F)(F)F)cc3)[nH]c(=O)c2-c2nnn[nH]2)cc1C [Example 50, 4-(3,4-Dimethylphenyl)-3-(1H-tetrazol-5-yl)-6-(4-(4,4,4-trifluorobutoxy)phenyl)pyridin-2(1H)-one] | 109 nM
25 | COc1ccc(NC(=O)c2c(-c3ccc(C(C)(C)C)cc3)cc(-c3ccc(OCCCC(F)(F)F)cc3)[nH]c2=O)cc1 [Example 51, 4-(4-(tert-Butyl)phenyl)-N-(4-methoxyphenyl)-2-oxo-6-(4-(4,4,4-trifluorobutoxy)phenyl)-1,2-dihydropyridine-3-carboxamide] | 417 nM
26 | Cc1ccc(-c2cc(-c3ccc(OCCCC(F)(F)F)c(C)c3)[nH]c(=O)c2-c2nnn[nH]2)cc1 [Example 58, 6-(3-Methyl-4-(4,4,4-trifluorobutoxy)phenyl)-3-(1H-tetrazol-5-yl)-4-(p-tolyl)pyridin-2(1H)-one] | 575 nM
27 | CN(C)c1ncc(-c2cc(-c3ccc(OCCCC(F)(F)F)cc3)[nH]c(=O)c2-c2nnn[nH]2)s1 [Example 68, 4-(2-(Dimethylamino)thiazol-5-yl)-3-(1H-tetrazol-5-yl)-6-(4-(4,4,4-trifluorobutoxy)phenyl)pyridin-2(1H)-one] | 673 nM
